Data on three compounds can be found in patent publication US8329218B2, “Unusually stable glasses and methods for forming same” (Wisconsin Alumni Research Foundation, priority 2007, dated 2012).

Molecules are shown by their SMILES.

A short description of data set [1]: Differential scanning calorimetry of glass stability (onset temperature, fictive temperature, θK). In kind it is physicochemical. The following applies: for Tg (onset temperature) of ordinary glass: ordinary glass cooled from the liquid; for enthalpies and Tfic values of vapor-deposited samples relative to ordinary glass: samples prepared by vapor deposition. From the text: Differential scanning calorimetry (DSC) was used to examine the kinetics and thermodynamics of vapor-deposited samples created by heating crystalline TNB or IMC in a vacuum. To move a sample from the glass to the supercooled liquid, energy must be supplied to the sample. In DSC, this energy is supplied as heat to the system as the temperature is ramped from a temperature below the glass transition into the supercooled liquid regime. For an ordinary glass that is cooled from the melt the amount of energy needed to do this is observed by a change in heat capacity at Tg. […] An endothermic heat characteristic will be observed in these cases, often referred to as an enthalpy overshoot, where the size and temperature of the overshoot indicate the amount of stability.
This scan was continued to above the melting point, after which the sample was cooled at 40 K/min into the glass and then scanned again to yield the leftmost curve. This latter-curve represents the behavior of an ordinary glass of TNB, with Tg=347 K, as defined by the onset temperature; it is consistent with previously reported results for TNB (C. M. Whitaker, R. J. McMahon J. Phys. Chem. 100, 1081 (1996); J. H. Magill, J. Chem. Phys. 47, 2802 (1967)). The DSC instrument was calibrated using an indium standard.
The fictive-temperature (Tfic) of the glasses, as defined below, was calculated in order to quantify the thermodynamic stability of the vapor-deposited materials. Lower Tfic values indicate a lower position on the energy landscape. The enthalpy for TNB and IMC samples, obtained by integrating Cp, is plotted in FIG. 1B. […] The supercooled liquid enthalpy curve was calculated by determining the temperature dependence of the enthalpy between the glass transition and the melting point and extrapolating this dependence to lower temperatures. […] Based upon aging experiments on TNB (D. J. Plazek, J. H. Magill, J. Chem. Phys. 45, 3038 (1966)), it is estimated that it would require at least 40 years of annealing an ordinary glass to match Tfic for the vapor-deposited sample shown in FIG. 1.
The Kauzmann temperature and θK were also calculated. For TNB, Magill estimated TK=270 K (J. H. Magill, J. Chem. Phys. 47, 2802 (1967)). […] In comparison, annealing the ordinary glass at 296 K (θK=0.09) or 328 K (θK=0.22) is relatively ineffective. […] Of annealing achieved θK≦0.17 (A. J. Kovacs, Fortschr Hochpolym-Forsch. 3, 394 (1963)).
On the technique in general: DSC measures the heat that a sample takes up or gives off during a temperature scan.

The nature of data set [2]: Water uptake: weight change as a function of relative humidity (sorption apparatus). The class given is physicochemical. As to the method: The stable glass was prepared by vapor depositing IMC onto an aluminum substrate using the method described in Example 1, above. The substrate was held at a temperature of 265 K and a deposition rate of 2 Å/s was used. For comparison, two “ordinary” glass samples were also prepared. These were formed by vapor-deposition at 315 K. In addition, water uptake was measured for a crystalline IMC glass. Weight change as a function of relative humidity was measured for the ordinary glasses, stable glass, and crystalline IMC. The multiple curves for a given sample are from cycles where the relative humidity (RH) was stepped up and back down. A TA instruments Q5000SA sorption apparatus was used to induce relative humidity step changes and measure the steady-state weight change response. For the crystalline IMC (lowest curve), at 50% RH less than 0.1% weight change was observed. By contrast: the ordinary glass (uppermost curves) absorbed nearly one weight percent at a RH of 50%. The measured percent weight change observed here matches previous data obtained for ordinary IMC glasses and crystalline IMC by Zografi and coworkers. (See Andronis et al., J. Pharm. Sci. 86, 346 (1997).)

Data set [3] can be described thus: Quasi-isothermal temperature modulated DSC: transformation of glass to supercooled liquid. Particulars: ordinary glass; Tanneal 319 K. The class given is physicochemical. As to the method:
The stable glass was prepared by vapor depositing IMC onto an aluminum substrate using the method described in Example 1, above. The substrate was held at a temperature of 265 K and a deposition rate of 2 Å/s was used. For comparison, an “ordinary” glass sample was also prepared by melting the vapor-deposited IMC glass and cooling the resulting liquid at a rate of 40 K/min.
The kinetic stability of the stable IMC glass was explored in quasi-isothermal temperature modulated differential scanning calorimetry (qi-TMDSC) experiments. In these experiments a TA instruments Q2000 DSC was used. After vapor deposition, the samples were placed in the DSC at room temperature. A temperature jump from room temperature to the annealing-temperature was carried out. At room temperature the sample was a glass, and the annealing temperature was chosen such that it was higher than the ordinary glass Tg (315 K). The temperature jump defines t=0. In addition to the instantaneous temperature jump a small sinusoidal temperature fluctuation was imposed (amplitude: 0.5: K, period: 60 seconds) which allows; one to measure the reversing heat capacity as a function of time.

The nature of data set [4]: Density of vapor-deposited films by x-ray reflectivity. Particulars: deposition at 296 K. In kind it is physicochemical. From the text: The present vapor-deposition methods can also create unusually dense glasses. The ratio of the density of vapor-deposited TNB (ρVD) to that of the ordinary glass (ρo, prepared by cooling from the liquid), increases as the deposition temperature is lowered toward 0.85 Tg (FIG. 2). Also shown as the solid line is a prediction of the density if vapor-deposition produced an equilibrium supercooled liquid at the deposition temperature (D. J. Plazek, J. H. Magill, J. Chem. Phys. 45, 3038 (1966)). For this range of deposition temperatures, the samples nearly achieve this upper bound for density. If a fictive temperature is defined based upon density, deposition at 296 K produces Tfic≈300 K, slightly lower than the fictive temperature based upon the enthalpy. Fictive temperatures based on densities can be determined from FIG. 2, by horizontally shifting the points to overlap with the line shown.
The data in FIG. 2 were determined from x-ray reflectivity measurements made on as-prepared films of TNB and on the same films after thermal equilibration above Tg. All x-ray data was taken at room temperature. […] Since the area of the film was the same before and after annealing, the ratio of the densities equals the inverse of the ratio of the thicknesses, and this is reported in FIG. 2. […]

The nature of data set [5]: Neutron reflectivity of interdiffusion in h-TNB/d-TNB multilayer films during annealing. In kind it is physicochemical. The method, then:
Neutron reflectivity was used to characterize diffusion in ordinary and stable glasses of TNB. The high spatial resolution and large contrast in the scattering length of neutrons for hydrogen and deuterium nuclei make this an excellent technique for quantifying molecular motion. The neutron reflectivity experiments were conducted at the NIST Center for Neutron Research at the National Institute of Standards and Technology (NCNR-NIST). The NG7 horizontal reflectometer utilized a 4.76 Å collimated neutron beam, with a wavelength divergence of 0.18 Å. The angular divergence of the beam was varied through the reflectivity scan and this provided a relative q resolution Δq/q=0.04 (q=4π sin θ/λ, where θ is the incident and final angle with respect to the surface of the film, and where λ is the neutron wavelength).
For the neutron reflectivity measurements, multilayer thin films of protio TNB (h-TNB) and deuterio TNB (d-TNB) were deposited onto 76-mm-diameter, 3-mm-thick silicon-wafers (Wafer World and Virginia Semiconductor), as described in S. F. Swallen, et al., J. Chem. Phys. 124, 184501 (2006). The silicon was used as received, retaining the native oxide coating. The deposition rate was typically 0.1 nm/s. Prior to deposition, the substrate was spin-coated with a 10-nm polystyrene layer (Polymer Source, ˜10^6 g/mol), which acted to minimize crystallization and dewetting of the TNB film during annealing. The polystyrene was made from a mixture of protio and perdeuterio chains, in order, to approximately match the neutron scattering length density of the first h-TNB layer. Following deposition, the samples were slowly cooled and held at room temperature for 1 to 5 days before neutron reflectivity measurements were obtained. The specular reflectivity R was measured as a function of beam angle relative to the sample surface. This value, multiplied by q^4 for clarity, is plotted as a function of the wavevector q. Reflectivity curves for samples vapor-deposited at different temperatures display diffraction peaks; as expected for the symmetric multi-layer samples, only odd diffraction orders are, present. For samples deposited at low temperature, diffraction can be observed up to the 13th order, indicating very sharp h-TNB/d-TNB interfaces. (S. F. Swallen et al; Science 315, 353 (2.007)). […]
FIG. 4A illustrates the behavior of an ordinary glass annealed near Tg; as shown elsewhere (S. F. Swallen et al., J. Chem. Phys. 124, 184501 (2006)), interdiffusion in this sample is characteristic of the equilibrium liquid. […] The magnitude of this stability can be quantified in terms of the equilibrium structural relaxation time τα, known to be 250 s at 342 K (R. Richert, K. Duvvuri, L.-T. Duong, J. Chem. Phys. 118, 1828 (2003)). […]

For data set [6] the following is noted: estimated by Magill; cited from earlier work.
For data set [7] the following is noted: at 342 K; cited from earlier work.
The nature of data set [8]: DSC of glasses made in a sublimation apparatus. Particulars: vapor deposition by sublimation, 8 mTorr.
From the text: A glass container that could be evacuated was used as a sublimation chamber. The lower part of the container held the material to be sublimed (“source material”). A condenser cooled by a circulating coolant was positioned above the source material. At the bottom of the condenser were attached a silicon wafer or aluminum DSC pans, which serves as surfaces for vapor deposition. The source material was heated to sublime by submerging the bottom the sublimation apparatus in an oil bath. The vapor produced by sublimation was deposited on the cooled collecting surfaces. The vacuum maintained during the operation of this device was 8 mTorr. A metal plate was placed over the source material until vapor deposition was to begin, at which time it was withdrawn magnetically. The sublimation rate was controlled by varying the oil bath temperature.
Curve 1 corresponds to a glass prepared by vapor deposition onto a DSC pan held, at approximately Tg−50 K at a rate of ˜0.2 nm/s. Curve 2 corresponds to an ordinary glass, produced by cooling the liquid at a rate of 10 K/min. […] Curve 1 corresponds to a glass prepared by vapor deposition onto a DSC pan at approximately Tg−50 K at a rate of ˜0.4 nm is. […] Curve 2 corresponds to an ordinary glass produced by cooling the liquid at 10 K/min.

For `COc1ccc2c(c1)c(CC(=O)O)c(C)n2C(=O)c1ccc(Cl)cc1` [IMC, indomethacin], in data set [1], the “Tg (onset temperature) of ordinary glass” value is 315 K. The “enthalpies and Tfic values of vapor-deposited samples relative to ordinary glass” value in data set [1] is reported as “considerably lower”. Moreover, the “weight change (water uptake)” value is reported as “less than 0.1%” in data set [2] (crystalline, 50% RH); “one” in data set [2] (ordinary glass (vapor-deposited at 315 K), RH of 50%); 0.15 weight percent in data set [2] (stable glass (vapor-deposited at 265 K, 2 Å/s), relative humidity of 50%). The “water uptake of stable glass relative to ordinary glass” value in data set [2] (relative humidity of 50%) is “one sixth”. In data set [3], the “response to temperature jump (transformation to supercooled liquid)” value was “nearly instantaneous”.

With `c1ccc2cc(-c3cc(-c4cccc5ccccc45)cc(-c4cccc5ccccc45)c3)ccc2c1` [TNB, 1,3-bis-(1-naphthyl)-5-(2-naphthyl)benzene], the “annealing time of an ordinary glass required to match Tfic of the vapor-deposited sample” value in data set [1] (estimated from aging experiments) is given as “at least 40 years”. For the same compound, the onset temperature in data set [1] (glass vapor-deposited onto substrate at 296 K, DSC heating 10 K/min) is listed as 363 K. Moreover, the θK in data set [1] (ordinary glass annealed at 296 K) is listed as 0.09; in data set [1] (ordinary glass annealed at 328 K) it was 0.22; in data set [1] (vapor deposition at 296 K (0.85Tg)), 0.43. Further, the “Tg (onset temperature) of ordinary glass” value in data set [1] came out at 347 K. Moreover, the “enthalpies and Tfic values of vapor-deposited samples relative to ordinary glass” value in data set [1] is “considerably lower”. In data set [4], the “Tfic (fictive temperature based upon density)” value is “≈ 300 K”. For the same compound, the “interdiffusion of h-TNB/d-TNB during annealing” value in data set [5] (deposited at 296 K, 16 hours of annealing at 342 K) was “no detectable interdiffusion occurred”; in data set [5] (deposited at 330 K, 8 hours of annealing at 342 K), “substantial interfacial broadening had occurred”. Further, the “induction time before diffusion” value in data set [5] (sample deposited at 0.85Tg, annealed at 342 K) is reported as “exceeds 200 τα”. Besides, in data set [5] (vapor-deposited at 296 K, 0.1 nm/sec, order-of-magnitude estimate), the surface diffusion coefficient is on record as 5×10^−16 cm^2/sec. The “Kauzmann temperature TK” value in data set [6] was 270 K. Also, the “equilibrium structural relaxation time τα” value in data set [7] is reported as 250 s.

For `CCC1(c2ccccc2)C(=O)NC(=O)NC1=O` [phenobarbital], the “stability of glass made in sublimation apparatus” value in data set [8] is recorded as “low fictive temperatures”.
